Molecular target: T1, hNLRP3 (Homo sapiens, UniProt Q96P20)
T1 construct: THP-1 cells were purchased from the American Type Culture Collection; host or cells: THP-1 cells, PMA-differentiated
Assay: Measurement of IL-1β production in PMA-differentiated THP-1 cells (hNLRP3 agonist; ELISA, alternative and hTRF procedures)
Assay type: cell-based
Method in brief: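 Supernatant IL-1β was quantified by ELISA in two procedures and by hTRF (kit antibodies at 1:40) in a third. THP-1 cells were first differentiated with PMA ([…] for 24 h; 20 μg/ml overnight; 50 ng/ml overnight), then incubated in 2% FBS RPMI with compounds for 4 h, 2 h and 2 h, respectively, at 1% DMSO or a 10 μM top concentration.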

T1 sequence (Q96P20 whole entry): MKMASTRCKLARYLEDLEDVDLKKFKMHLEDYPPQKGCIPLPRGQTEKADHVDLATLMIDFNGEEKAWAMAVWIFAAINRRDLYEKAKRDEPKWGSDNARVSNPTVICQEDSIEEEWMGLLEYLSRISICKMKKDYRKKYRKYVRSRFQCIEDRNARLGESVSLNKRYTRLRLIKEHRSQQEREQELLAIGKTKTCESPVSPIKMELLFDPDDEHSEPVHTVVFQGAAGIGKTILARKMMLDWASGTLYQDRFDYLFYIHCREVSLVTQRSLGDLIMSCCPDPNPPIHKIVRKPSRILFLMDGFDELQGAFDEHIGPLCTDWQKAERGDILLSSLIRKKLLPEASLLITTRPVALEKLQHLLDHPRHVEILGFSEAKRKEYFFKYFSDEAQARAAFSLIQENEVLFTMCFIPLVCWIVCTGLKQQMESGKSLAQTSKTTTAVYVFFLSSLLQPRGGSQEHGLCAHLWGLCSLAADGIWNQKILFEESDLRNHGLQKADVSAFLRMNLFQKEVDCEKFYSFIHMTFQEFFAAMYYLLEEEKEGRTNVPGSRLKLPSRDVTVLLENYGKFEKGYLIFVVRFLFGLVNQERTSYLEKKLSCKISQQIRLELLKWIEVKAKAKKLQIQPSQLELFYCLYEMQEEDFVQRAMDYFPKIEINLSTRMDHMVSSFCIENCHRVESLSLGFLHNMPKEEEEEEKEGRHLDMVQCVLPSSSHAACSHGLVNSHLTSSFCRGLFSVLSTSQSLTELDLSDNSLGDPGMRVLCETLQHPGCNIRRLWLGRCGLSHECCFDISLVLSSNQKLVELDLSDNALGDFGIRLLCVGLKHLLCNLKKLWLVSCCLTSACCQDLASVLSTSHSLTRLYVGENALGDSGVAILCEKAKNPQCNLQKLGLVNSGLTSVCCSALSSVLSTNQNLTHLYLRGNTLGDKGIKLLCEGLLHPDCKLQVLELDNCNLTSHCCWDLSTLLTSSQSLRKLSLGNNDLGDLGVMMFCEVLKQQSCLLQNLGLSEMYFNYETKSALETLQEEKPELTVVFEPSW

SMILES	EC50 [nM]
CC(c1nc2c(N)nc3cc(-n4cccn4)ccc3c2[nH]1)N1CCCC1=O (centres unmarked) [Compound 117]	1260
N#Cc1ccccc1-c1ccc2c(c1)nc(N)c1nc(CN3CCCC3=O)[nH]c12 [Compound 315, 2-[4-amino-2-[(2-oxopyrrolidin-l-yl)methyl]-1H-imidazo[4,5-c]quinolin-7-yl]benzonitrile]	1180
Nc1nc2cc(Br)ccc2c2[nH]c(CN3CC(c4ccccc4)CC3=O)nc12 (centres unmarked) [Compound 316, 1-[(4-amino-7-bromo-1H-imidazo[4,5-c]quinolin-2-yl)methyl]-4-phenylpyrrolidin-2-one]	1100
Nc1nc2cc(-c3cnccc3Cl)ccc2c2[nH]c(CN3CCCC3=O)nc12 [Compound 321, 1-[[4-amino-7-(4-chloropyridin-3-yl)-1H-imidazo[4,5-c]quinolin-2-yl]methyl]pyrrolidin-2-one]	4500
N#Cc1cncc(-c2ccc3c(c2)nc(N)c2nc(CN4CCCC4=O)[nH]c23)c1 [Compound 326, 5-[4-amino-2-[(2-oxopyrrolidin-l-yl)methyl]-1H-imidazo[4,5-c]quinolin-7-yl]pyridine-3-carbonitrile]	2700
N#Cc1ccc(-c2ccc3c(c2)nc(N)c2nc(CN4CCCC4=O)[nH]c23)cn1 [Compound 327, 5-[4-amino-2-[(2-oxopyrrolidin-l-yl)methyl]-1H-imidazo[4,5-c]quinolin-7-yl]pyridine-2-carbonitrile]	13000
Nc1nc2cc(C3CCCCCC3)ccc2c2[nH]c(CN3CCCC3=O)nc12 [Compound 332, 1-[(4-amino-7-cycloheptyl-1H-imidazo[4,5-c]quinolin-2-yl)methyl]pyrrolidin-2-one]	3300
COC(=O)CCCn1c(CN2CCCC2=O)nc2c(N)nc3ccccc3c21 [Compound 335]	6500
CN(C)C(=O)CCCn1c(CN2CCCC2=O)nc2c(N)nc3cc(Cl)ccc3c21 [Compound 337]	80000
COC(=O)CCCn1c(CN2CCCC2=O)nc2c(N)nc3cc(Br)ccc3c21 [Compound 341]	2100
COC(=O)CCCn1c(CN2CCCC2=O)nc2c(N)nc3cc(-c4cccnc4)ccc3c21 [Compound 342]	3300
COC(=O)CCCn1c(CN2CCCCC2=O)nc2c(N)nc3ccccc3c21 [Compound 347]	41000
Nc1nc2cc(-n3cccn3)ccc2c2[nH]c(CN3C[C@H](c4ccccc4)CC3=O)nc12 [Compound 358]	630
Nc1nc2cc(-c3cc[nH]n3)ccc2c2[nH]c(CN3C(=O)OCC3c3ccccc3)nc12 (centres unmarked) [Compound 363]	5800
CN(Cc1nc2c(N)nc3cc(-c4cc[nH]n4)ccc3c2[nH]1)C(=O)CN [Compound 372]	8300
CN(C)C(=O)N(C)Cc1nc2c(N)nc3cc(-c4cc[nH]n4)ccc3c2[nH]1 [Compound 375]	2400
CCN(C=O)Cc1nc2c(N)nc3cc(-c4cc[nH]n4)ccc3c2[nH]1 [Compound 379]	2000
CCNCc1nc2c(N)nc3cc(-n4cccn4)ccc3c2[nH]1 [Compound 398]	1220

Continued, values first:

EC50 [nM]	SMILES
720	CCC(=O)NCc1nc2c(N)nc3cc(-c4cc[nH]n4)ccc3c2[nH]1 [Compound 111]
1040	CCN(Cc1nc2c(N)nc3cc(-c4cc[nH]n4)ccc3c2[nH]1)C(=O)c1nccs1 [Compound 114]
900	CN(Cc1nc2c(N)nc3cc(-c4cc[nH]n4)ccc3c2[nH]1)S(C)(=O)=O [Compound 115]
1360	CCN(Cc1nc2c(N)nc3cc(-c4cc[nH]n4)ccc3c2[nH]1)C(=O)C1CC1 [Compound 118]
240	Nc1nc2cc(-c3cccs3)ccc2c2[nH]c(CN3CCCC3=O)nc12 [Compound 309, 1-[(4-amino-7-thiophen-2-yl-1H-imidazo[4,5-c]quinolin-2-yl)methyl]pyrrolidin-2-one]
6200	COc1ncccc1-c1ccc2c(c1)nc(N)c1nc(CN3CCCC3=O)[nH]c12 [Compound 319, 1-[[4-amino-7-(2-methoxypyridin-3-yl)-1H-imidazo[4,5-c]quinolin-2-yl]methyl]pyrrolidin-2-one]
1500	Nc1nc2cc(-c3cccnc3Cl)ccc2c2[nH]c(CN3CCCC3=O)nc12 [Compound 320, 1-[[4-amino-7-(2-chloropyridin-3-yl)-1H-imidazo[4,5-c]quinolin-2-yl]methyl]pyrrolidin-2-one]
6700	Nc1nc2cc(-c3ccc(C(F)(F)F)nc3)ccc2c2[nH]c(CN3CCCC3=O)nc12 [Compound 324, 1-[[4-amino-746-(trifluoromethyppyridin-3-yl]-1H-imidazo[4,5-c]quinolin-2-yl]methyl]pyrrolidin-2-one]
4100	Nc1nc2cc(-c3cncc(Cl)c3)ccc2c2[nH]c(CN3CCCC3=O)nc12 [Compound 328, 1-[[4-amino-7-(5-chloropyridin-3-yl)-1H-imidazo[4,5-c]quinolin-2-yl]methyl]pyrrolidin-2-one]
1600	Nc1nc2cc(-c3ccc(F)nc3)ccc2c2[nH]c(CN3CCCC3=O)nc12 [Compound 330, 1-[[4-amino-7-(6-fluoropyridin-3-yl)-1H-imidazo[4,5-c]quinolin-2-yl]methyl]pyrrolidin-2-one]
3200	Nc1nc2cc(-c3cncc(F)c3)ccc2c2[nH]c(CN3CCCC3=O)nc12 [Compound 331, 1-[[4-amino-7-(5-fluoropyridin-3-yl)-1H-imidazo[4,5-c]quinolin-2-yl]methyl]pyrrolidin-2-one]
1900	Nc1nc2cc(-c3cccnc3)ccc2c2[nH]c(CN3CC(c4ccccc4)CC3=O)nc12 (centres unmarked) [Compound 333, 1-[(4-amino-7-pyridin-3-yl-1H-imidazo[4,5-c]quinolin-2-yl)methyl]-4-phenylpyrrolidin-2-one]
50000	CN(C)C(=O)CCCn1c(CN2CCCC2=O)nc2c(N)nc3cc(-c4cccnc4)ccc3c21 [Compound 340]
17300	Nc1nc2ccccc2c2[nH]c(CN3CCCCC3=O)nc12 [Compound 346]
890	CN(C)Cc1nc2c(N)nc3cc(-c4cc[nH]n4)ccc3c2[nH]1 [Compound 348]
600	CCN(C)Cc1nc2c(N)nc3cc(-c4cc[nH]n4)ccc3c2[nH]1 [Compound 349]
640	Nc1nc2cc(-n3cccn3)ccc2c2[nH]c(CN3C[C@@H](c4ccccc4)CC3=O)nc12 [Compound 357]
5000	Nc1nc2cc(-c3cc[nH]n3)ccc2c2[nH]c(CN3CCOC3=O)nc12 [Compound 365]
3900	CN1CCN(Cc2nc3c(N)nc4cc(-c5cc[nH]n5)ccc4c3[nH]2)C1=O [Compound 368]
4800	CN(Cc1nc2c(N)nc3cc(-c4cc[nH]n4)ccc3c2[nH]1)C(=O)CO [Compound 370]
3600	CN(Cc1nc2c(N)nc3cc(-c4cc[nH]n4)ccc3c2[nH]1)C(=O)c1ccccc1 [Compound 376]
4300	CN(Cc1nc2c(N)nc3cc(-c4cc[nH]n4)ccc3c2[nH]1)C(=O)c1nccs1 [Compound 377]
3600	CCN(Cc1nc2c(N)nc3cc(-c4cc[nH]n4)ccc3c2[nH]1)C(=O)CN(C)C [Compound 383]
7110	CCN(Cc1nc2c(N)nc3cc(-c4ccn(C)n4)ccc3c2[nH]1)C(=O)OC(C)(C)C [Compound 393]
1050	CCN(Cc1nc2c(N)nc3cc(-c4ccsc4)ccc3c2[nH]1)C(=O)OC(C)(C)C [Compound 397]
1060	CCNCc1nc2c(N)nc3cc(-c4cccs4)ccc3c2[nH]1 [Compound 399]

— patent publication US12351580B2, “NLRP3 modulators” (Innate Tumor Immunity, Inc., priority 2017, dated 2025)
